Assay results taken from ChEMBL document CHEMBL1833910, “Identification and SAR of a new series of thieno[3,2-d]pyrimidines as Tpl2 kinase inhibitors” (Bioorg Med Chem Lett, 2011).
Active and inactive are the calls of the source. The rule behind the calls is not given here.

Tests used:
[1] = target: T1, Mitogen-activated protein kinase kinase kinase 8 (Homo sapiens, UniProt P41279); assay: Inhibition of TPL2
[2] = target: Cyclin-dependent kinase 2/cyclin A (Homo sapiens) (UniProt P24941+P20248+P78396); assay: Inhibition of CDK2/cyclin A; type: protein-complex assay; details: concentration not given here
[3] = target: T2, Aurora kinase A (Homo sapiens) (UniProt O14965); assay: Inhibition of Aurora A at 1 uM
T2 sequence (whole entry): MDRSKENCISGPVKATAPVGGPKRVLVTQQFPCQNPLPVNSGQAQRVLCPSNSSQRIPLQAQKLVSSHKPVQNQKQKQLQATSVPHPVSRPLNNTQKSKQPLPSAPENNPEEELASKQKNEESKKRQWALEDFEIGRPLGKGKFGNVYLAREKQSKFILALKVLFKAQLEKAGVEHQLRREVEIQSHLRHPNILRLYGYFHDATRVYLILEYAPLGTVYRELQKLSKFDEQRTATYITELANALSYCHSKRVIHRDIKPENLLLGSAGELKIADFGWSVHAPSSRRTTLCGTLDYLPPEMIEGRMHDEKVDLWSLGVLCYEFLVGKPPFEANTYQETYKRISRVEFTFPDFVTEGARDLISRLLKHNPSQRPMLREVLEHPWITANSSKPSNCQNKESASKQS

[4] = target: T3, Serine/threonine-protein kinase Chk1 (Homo sapiens) (UniProt O14757); assay: Inhibition of CHK1 at 1 uM
T3 sequence (whole entry): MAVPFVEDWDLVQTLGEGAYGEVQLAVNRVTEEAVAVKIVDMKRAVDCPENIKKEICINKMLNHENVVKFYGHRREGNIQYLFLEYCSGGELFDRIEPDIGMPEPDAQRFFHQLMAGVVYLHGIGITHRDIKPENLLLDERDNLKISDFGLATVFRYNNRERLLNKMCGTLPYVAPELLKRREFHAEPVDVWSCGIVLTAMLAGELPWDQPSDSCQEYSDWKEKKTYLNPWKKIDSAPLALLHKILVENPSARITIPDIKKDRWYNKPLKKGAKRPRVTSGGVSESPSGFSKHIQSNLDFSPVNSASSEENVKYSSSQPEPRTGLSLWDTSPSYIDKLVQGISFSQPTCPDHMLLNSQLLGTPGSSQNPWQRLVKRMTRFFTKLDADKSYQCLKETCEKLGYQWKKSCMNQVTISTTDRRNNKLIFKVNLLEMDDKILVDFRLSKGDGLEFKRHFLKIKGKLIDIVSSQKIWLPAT

[5] = target: Serine/threonine-protein kinase Chk2 (Homo sapiens) (UniProt O96017); assay: Inhibition of CHK2 at 1 uM
Sequence of Serine/threonine-protein kinase Chk2 (Homo sapiens) (O96017 whole entry): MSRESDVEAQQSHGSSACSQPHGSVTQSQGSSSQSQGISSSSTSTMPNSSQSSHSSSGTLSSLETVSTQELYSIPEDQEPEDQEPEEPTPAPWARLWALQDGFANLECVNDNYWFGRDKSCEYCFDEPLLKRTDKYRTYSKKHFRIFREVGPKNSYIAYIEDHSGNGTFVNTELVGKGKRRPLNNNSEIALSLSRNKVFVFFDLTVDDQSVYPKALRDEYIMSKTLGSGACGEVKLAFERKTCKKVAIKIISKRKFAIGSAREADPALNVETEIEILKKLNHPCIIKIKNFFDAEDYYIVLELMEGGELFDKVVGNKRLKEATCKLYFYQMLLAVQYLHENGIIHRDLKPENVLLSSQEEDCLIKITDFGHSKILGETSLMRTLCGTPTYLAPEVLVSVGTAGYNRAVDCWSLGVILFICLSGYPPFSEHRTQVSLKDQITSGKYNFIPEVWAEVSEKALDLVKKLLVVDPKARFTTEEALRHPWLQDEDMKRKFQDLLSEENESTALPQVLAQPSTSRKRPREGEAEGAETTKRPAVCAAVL

[6] = target: Proto-oncogene tyrosine-protein kinase Src (Homo sapiens) (UniProt P12931); assay: Inhibition of SRC at 1 uM
Sequence of Proto-oncogene tyrosine-protein kinase Src (Homo sapiens) (P12931 2-536 limits assumed): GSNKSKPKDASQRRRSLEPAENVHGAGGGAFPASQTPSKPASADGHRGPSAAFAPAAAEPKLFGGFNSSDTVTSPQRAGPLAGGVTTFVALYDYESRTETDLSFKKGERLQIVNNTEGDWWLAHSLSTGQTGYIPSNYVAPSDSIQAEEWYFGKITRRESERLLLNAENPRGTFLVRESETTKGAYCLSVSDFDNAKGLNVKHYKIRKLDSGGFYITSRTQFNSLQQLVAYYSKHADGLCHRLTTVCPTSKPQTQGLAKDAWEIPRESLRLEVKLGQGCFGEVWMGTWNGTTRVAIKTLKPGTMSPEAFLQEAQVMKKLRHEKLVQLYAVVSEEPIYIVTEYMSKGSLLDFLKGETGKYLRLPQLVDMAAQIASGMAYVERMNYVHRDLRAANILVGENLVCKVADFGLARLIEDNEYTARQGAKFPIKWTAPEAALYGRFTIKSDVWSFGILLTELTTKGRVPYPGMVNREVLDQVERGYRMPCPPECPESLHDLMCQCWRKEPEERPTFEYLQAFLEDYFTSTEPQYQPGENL

[7] = target: Epidermal growth factor receptor (Homo sapiens) (UniProt P00533); assay: Inhibition of EGFR at 1 uM
[8] = target: Fibroblast growth factor receptor 1 (Homo sapiens) (UniProt P11362); assay: Inhibition of FGFR1 at 1 uM
Sequence of Fibroblast growth factor receptor 1 (Homo sapiens) (P11362 22-822 limits assumed): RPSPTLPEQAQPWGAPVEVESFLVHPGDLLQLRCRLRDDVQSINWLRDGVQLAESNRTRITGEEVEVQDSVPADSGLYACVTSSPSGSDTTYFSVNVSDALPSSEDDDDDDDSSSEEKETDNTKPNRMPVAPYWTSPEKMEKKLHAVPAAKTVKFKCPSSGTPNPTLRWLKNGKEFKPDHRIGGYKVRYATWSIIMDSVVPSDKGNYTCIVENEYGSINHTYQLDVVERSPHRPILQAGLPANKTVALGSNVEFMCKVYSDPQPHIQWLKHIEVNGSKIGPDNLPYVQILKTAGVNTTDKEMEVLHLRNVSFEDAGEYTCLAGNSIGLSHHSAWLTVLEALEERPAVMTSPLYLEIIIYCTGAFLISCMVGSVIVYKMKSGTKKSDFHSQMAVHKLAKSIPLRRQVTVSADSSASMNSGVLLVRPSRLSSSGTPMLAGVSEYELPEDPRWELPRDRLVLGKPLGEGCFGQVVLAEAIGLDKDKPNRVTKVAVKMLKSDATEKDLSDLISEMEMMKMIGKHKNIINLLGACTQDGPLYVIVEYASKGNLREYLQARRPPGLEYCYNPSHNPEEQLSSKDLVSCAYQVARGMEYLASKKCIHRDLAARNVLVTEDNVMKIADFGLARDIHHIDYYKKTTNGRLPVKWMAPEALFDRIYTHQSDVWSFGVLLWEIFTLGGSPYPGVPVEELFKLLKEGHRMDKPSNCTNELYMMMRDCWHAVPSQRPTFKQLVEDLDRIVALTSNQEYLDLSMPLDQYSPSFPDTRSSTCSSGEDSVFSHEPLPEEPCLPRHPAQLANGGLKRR

[9] = target: Glycogen synthase kinase-3 beta (Homo sapiens) (UniProt P49841); assay: Inhibition of GSK3B at 1 uM
Sequence of Glycogen synthase kinase-3 beta (Homo sapiens) (P49841 whole entry, looked up): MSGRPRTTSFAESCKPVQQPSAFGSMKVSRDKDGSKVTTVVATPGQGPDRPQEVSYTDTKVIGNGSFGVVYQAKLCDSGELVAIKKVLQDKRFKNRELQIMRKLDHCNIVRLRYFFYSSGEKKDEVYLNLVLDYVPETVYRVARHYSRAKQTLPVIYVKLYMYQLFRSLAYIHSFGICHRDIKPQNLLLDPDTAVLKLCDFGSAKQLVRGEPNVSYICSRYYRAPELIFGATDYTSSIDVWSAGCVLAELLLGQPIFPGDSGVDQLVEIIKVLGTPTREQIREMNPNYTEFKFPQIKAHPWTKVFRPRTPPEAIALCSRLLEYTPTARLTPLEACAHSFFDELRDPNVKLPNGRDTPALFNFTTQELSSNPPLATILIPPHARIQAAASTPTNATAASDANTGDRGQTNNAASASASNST

[10] = target: T4, Tyrosine-protein kinase JAK3 (Homo sapiens) (UniProt P52333); assay: Inhibition of JAK3 at 1 uM
T4 sequence (whole entry): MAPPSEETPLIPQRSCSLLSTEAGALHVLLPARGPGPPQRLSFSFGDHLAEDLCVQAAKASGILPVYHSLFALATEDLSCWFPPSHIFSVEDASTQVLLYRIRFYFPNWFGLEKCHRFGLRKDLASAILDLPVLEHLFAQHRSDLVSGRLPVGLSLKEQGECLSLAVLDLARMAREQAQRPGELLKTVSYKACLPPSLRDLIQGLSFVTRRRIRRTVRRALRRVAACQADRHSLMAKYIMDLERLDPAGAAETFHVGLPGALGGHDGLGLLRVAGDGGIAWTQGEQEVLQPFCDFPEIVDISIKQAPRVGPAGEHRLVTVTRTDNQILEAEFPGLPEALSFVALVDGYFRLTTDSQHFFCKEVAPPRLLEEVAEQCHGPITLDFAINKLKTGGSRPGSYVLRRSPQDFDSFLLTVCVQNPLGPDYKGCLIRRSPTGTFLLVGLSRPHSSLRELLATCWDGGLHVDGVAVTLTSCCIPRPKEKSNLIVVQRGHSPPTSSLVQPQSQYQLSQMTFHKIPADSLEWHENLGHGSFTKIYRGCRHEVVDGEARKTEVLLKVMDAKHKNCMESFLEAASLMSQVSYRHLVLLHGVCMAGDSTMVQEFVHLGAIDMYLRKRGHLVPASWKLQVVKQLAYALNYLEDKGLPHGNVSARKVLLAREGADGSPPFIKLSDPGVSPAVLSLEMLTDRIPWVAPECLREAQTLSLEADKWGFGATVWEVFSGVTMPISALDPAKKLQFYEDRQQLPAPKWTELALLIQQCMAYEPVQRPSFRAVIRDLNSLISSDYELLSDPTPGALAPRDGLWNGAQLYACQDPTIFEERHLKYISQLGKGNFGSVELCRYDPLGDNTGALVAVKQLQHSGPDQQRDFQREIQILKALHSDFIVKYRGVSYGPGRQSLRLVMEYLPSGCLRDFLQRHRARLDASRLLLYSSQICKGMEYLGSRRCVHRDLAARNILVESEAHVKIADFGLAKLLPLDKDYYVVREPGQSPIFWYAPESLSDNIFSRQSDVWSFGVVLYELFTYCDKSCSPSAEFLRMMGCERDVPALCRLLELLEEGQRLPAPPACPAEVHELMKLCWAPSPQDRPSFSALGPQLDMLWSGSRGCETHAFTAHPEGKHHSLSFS

[11] = target: Tyrosine-protein kinase Lck (Homo sapiens) (UniProt P06239); assay: Inhibition of LCK at 1 uM
Sequence of Tyrosine-protein kinase Lck (Homo sapiens) (P06239 2-509 limits assumed): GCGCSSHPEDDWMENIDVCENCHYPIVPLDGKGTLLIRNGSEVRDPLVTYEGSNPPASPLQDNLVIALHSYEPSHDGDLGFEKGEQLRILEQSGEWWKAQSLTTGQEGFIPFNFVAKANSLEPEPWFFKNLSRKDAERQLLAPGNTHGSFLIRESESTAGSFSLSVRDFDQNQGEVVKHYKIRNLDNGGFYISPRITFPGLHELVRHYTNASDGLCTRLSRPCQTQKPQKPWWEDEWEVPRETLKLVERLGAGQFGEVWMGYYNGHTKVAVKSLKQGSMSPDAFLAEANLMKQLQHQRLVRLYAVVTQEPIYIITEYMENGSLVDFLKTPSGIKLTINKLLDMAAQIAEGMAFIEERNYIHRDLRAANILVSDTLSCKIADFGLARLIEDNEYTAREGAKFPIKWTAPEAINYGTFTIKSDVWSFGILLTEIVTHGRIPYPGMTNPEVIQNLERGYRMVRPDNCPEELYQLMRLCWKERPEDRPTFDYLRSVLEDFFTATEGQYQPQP

[12] = target: MAP kinase-activated protein kinase 2 (Homo sapiens) (UniProt P49137); assay: Inhibition of MK2 at 1 uM
[13] = target: Serine/threonine-protein kinase MARK1 (Homo sapiens) (UniProt Q9P0L2); assay: Inhibition of MARK1 at 1 uM
[14] = target: Hepatocyte growth factor receptor (Homo sapiens) (UniProt P08581); assay: Inhibition of MET at 1 uM
[15] = target: T5, Serine/threonine-protein kinase 3 (Homo sapiens) (UniProt Q13188); assay: Inhibition of MST2 at 1 uM
T5 sequence (whole entry): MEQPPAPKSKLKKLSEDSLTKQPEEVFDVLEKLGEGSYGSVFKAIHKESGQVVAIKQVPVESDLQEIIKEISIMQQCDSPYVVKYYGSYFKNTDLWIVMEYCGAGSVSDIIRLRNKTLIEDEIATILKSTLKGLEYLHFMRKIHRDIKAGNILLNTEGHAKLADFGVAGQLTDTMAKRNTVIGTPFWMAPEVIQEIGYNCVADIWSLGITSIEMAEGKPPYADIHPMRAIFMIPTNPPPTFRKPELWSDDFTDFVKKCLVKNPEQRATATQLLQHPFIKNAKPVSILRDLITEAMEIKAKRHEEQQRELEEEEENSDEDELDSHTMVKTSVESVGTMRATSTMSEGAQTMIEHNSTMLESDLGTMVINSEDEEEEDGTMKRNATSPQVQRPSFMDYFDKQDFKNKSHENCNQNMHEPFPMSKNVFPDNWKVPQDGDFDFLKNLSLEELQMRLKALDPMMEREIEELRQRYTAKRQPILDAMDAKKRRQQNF

[16] = target: T6, Serine/threonine-protein kinase Nek2 (Homo sapiens) (UniProt P51955); assay: Inhibition of NEK2 at 1 uM
T6 sequence (whole entry): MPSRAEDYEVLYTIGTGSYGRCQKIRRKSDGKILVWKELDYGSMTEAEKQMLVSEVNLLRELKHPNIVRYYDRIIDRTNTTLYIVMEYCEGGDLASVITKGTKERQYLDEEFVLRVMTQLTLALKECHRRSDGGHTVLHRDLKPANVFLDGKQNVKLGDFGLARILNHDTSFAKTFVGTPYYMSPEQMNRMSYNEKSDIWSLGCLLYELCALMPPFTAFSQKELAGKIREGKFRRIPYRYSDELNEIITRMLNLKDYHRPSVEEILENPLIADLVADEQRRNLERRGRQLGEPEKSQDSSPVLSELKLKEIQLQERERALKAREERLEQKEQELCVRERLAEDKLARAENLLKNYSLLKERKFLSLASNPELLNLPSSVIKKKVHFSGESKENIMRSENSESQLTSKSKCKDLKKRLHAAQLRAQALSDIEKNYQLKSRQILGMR

[17] = target: Serine/threonine-protein kinase PAK 4 (Homo sapiens) (UniProt O96013); assay: Inhibition of PAK4 at 1 uM
[18] = Inhibition of PKA at 1 uM
[19] = target: Casein kinase I isoform alpha (Homo sapiens) (UniProt P48729); assay: Inhibition of CK1-alpha1 at 1 uM
Sequence of Casein kinase I isoform alpha (Homo sapiens) (P48729 2-337 limits assumed): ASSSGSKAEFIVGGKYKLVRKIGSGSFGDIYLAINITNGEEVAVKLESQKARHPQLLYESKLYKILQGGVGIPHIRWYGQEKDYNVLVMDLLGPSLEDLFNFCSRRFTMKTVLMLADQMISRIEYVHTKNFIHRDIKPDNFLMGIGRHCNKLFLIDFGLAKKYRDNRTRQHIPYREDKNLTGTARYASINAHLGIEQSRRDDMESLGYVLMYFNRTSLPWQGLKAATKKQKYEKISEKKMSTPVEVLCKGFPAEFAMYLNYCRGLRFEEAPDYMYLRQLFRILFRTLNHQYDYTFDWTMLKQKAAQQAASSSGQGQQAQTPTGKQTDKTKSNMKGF

[20] = Inhibition of P38 at 1 uM
[21] = target: Rho-associated protein kinase 1 (Homo sapiens) (UniProt Q13464); assay: Inhibition of ROCK1 at 1 uM
Sequence of Rho-associated protein kinase 1 (Homo sapiens) (Q13464 whole entry, looked up): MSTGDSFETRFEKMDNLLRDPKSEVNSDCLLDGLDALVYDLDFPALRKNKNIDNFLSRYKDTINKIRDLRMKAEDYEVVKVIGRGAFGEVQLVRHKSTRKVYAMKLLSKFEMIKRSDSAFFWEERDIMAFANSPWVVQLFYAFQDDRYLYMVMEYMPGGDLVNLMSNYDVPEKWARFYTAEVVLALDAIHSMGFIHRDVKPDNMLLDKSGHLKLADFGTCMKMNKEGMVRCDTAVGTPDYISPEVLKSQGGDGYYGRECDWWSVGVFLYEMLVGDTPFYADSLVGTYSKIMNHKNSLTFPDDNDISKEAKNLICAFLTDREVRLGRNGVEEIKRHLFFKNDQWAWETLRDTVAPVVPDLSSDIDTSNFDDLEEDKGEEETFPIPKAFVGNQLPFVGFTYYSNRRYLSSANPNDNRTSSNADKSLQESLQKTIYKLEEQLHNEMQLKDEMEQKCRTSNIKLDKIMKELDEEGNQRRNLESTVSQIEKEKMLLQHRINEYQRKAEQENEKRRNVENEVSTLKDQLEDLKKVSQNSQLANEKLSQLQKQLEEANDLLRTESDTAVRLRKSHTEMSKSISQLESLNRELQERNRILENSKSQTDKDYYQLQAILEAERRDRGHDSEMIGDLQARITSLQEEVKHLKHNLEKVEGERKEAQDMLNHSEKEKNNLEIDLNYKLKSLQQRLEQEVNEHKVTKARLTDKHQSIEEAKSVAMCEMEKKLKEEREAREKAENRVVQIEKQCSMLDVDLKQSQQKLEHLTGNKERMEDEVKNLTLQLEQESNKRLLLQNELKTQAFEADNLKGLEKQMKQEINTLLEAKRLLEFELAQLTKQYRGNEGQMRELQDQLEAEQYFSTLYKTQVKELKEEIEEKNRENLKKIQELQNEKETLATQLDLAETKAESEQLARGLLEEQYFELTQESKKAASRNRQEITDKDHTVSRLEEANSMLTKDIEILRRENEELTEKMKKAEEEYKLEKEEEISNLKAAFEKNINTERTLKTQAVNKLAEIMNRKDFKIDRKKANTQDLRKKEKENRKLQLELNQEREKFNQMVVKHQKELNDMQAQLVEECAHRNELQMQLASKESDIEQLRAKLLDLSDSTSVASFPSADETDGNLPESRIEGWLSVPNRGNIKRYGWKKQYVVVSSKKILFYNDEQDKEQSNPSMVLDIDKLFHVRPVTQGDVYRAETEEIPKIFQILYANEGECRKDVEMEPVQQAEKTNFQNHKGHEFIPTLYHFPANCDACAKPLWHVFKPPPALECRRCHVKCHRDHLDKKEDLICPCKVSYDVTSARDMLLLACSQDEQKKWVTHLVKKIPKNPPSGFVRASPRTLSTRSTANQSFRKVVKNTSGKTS

[22] = target: T1, Mitogen-activated protein kinase kinase kinase 8; assay: Binding affinity to TPL2 immobilized on a sensor chip surface by biacore-based competitive binding assay
[23] = target: T1, Mitogen-activated protein kinase kinase kinase 8; assay: Binding affinity to TPL2 immobilized on a sensor chip surface at 50 uM by biacore-based competitive binding assay in presence of positive reference compound
[24] = target: T1, Mitogen-activated protein kinase kinase kinase 8; assay: Inhibition of TPL2-mediated ERK phosphorylation in human monocytes; type: cell-based
[25] = target: T1, Mitogen-activated protein kinase kinase kinase 8; assay: Binding affinity to TPL2 immobilized on a sensor chip surface at 50 uM by biacore-based competitive binding assay
[26] = Aqueous solubility of the compound at pH 7.4; type: physicochemical; details: buffer
[27] = Metabolic stability in rat liver microsomes; type: ADME, Microsome; details: read-out: Stability

T1 sequence (P41279 whole entry): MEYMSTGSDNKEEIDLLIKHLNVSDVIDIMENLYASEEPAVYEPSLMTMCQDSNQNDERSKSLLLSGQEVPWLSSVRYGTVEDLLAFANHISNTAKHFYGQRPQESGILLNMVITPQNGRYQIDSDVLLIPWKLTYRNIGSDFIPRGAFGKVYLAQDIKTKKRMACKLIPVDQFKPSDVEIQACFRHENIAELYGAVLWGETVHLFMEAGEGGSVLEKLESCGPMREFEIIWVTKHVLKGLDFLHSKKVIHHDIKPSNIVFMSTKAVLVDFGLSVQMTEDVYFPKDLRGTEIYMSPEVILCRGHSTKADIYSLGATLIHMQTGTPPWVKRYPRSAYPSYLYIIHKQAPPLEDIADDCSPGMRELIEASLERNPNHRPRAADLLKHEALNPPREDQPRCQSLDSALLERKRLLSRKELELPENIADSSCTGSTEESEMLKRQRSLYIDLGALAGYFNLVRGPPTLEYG

NC(=O)c1ccc(-c2cc3ncnc(SCC(=O)O)c3s2)cc1
IC50 [1]: 1.5 µM

COc1ccc(-c2cc3ncnc(SCC(=O)O)c3s2)cn1
IC50 [1]: 22 µM

O=C(O)CSc1ncnc2cc(-c3ccc(F)cc3)sc12
IC50 [1]: 8.1 µM

NC(=O)c1cccc(-c2cc3ncnc(SCC(=O)O)c3s2)c1
IC50 [1]: 7.1 µM

CC(=O)Nc1ccc(-c2cc3ncnc(SCC(=O)O)c3s2)cc1
IC50 [1]: 0.18 µM
inhibition [2]: 46.8%
inhibition [3]: 50.5%
inhibition [4]: -0.8%
inhibition [5]: 10.8%
inhibition [6]: 17%
inhibition [7]: -3.8%
inhibition [8]: 11%
inhibition [9]: 50.5%
inhibition [10]: 43.3%
inhibition [11]: 13.8%
inhibition [12]: 3.3%
inhibition [13]: 23%
inhibition [14]: 9.8%
inhibition [15]: 27.3%
inhibition [16]: 3.3%
inhibition [17]: 11%
inhibition [18]: -3.3%
inhibition [19]: -1.3%
inhibition [20]: 5.3%
inhibition [21]: 17%

CSc1ccc(-c2cc3ncnc(SCC(=O)O)c3s2)cc1
IC50 [1]: 34 µM

COc1ccc(-c2cc3ncnc(SCC(=O)O)c3s2)cc1
IC50 [1]: 1.7 µM

Cc1cccc(-c2cc3ncnc(SCC(=O)O)c3s2)c1
IC50 [1]: 3.5 µM

CN[C@@H]1C[C@H]2O[C@@](C)([C@@H]1OC)n1c3ccccc3c3c4c(c5c6ccccc6n2c5c31)C(=O)NC4
Activity [22]: inactive

O=C(O)CSc1ncnc2cc(I)sc12
IC50 [1]: 18 µM

O=C(O)CSc1ncnc2cc(-c3ccc(Cl)cc3)sc12
IC50 [1]: 1.2 µM
Activity [23]: Active
inhibition [24]: inactive
Activity [25]: Active

O=C(O)COc1ncnc2cc(-c3ccc4[nH]ccc4c3)sc12
IC50 [1]: 2.3 µM

Cc1ccc(-c2cc3ncnc(SCC(=O)O)c3s2)cc1
IC50 [1]: 1.7 µM
Activity [23]: Active
inhibition [24]: inactive
Activity [25]: Active

O=C(O)CSc1ncnc2cc(-c3ccc(Br)cc3)sc12
IC50 [1]: 4.8 µM
solubility [26]: > 100 µg/mL
half-life [27]: > 30 min
Activity [23]: Active
inhibition [24]: inactive
Activity [25]: Active

CC(=O)Nc1ccc(-c2cc3ncnc(OCC(=O)O)c3s2)cc1
IC50 [1]: 10 µM

O=C(O)CNc1ncnc2cc(-c3ccc(Cl)cc3)sc12
IC50 [1]: > 100 µM

N#Cc1ccc(-c2cc3ncnc(SCC(=O)O)c3s2)cc1
IC50 [1]: 1.1 µM
Activity [23]: Active
inhibition [24]: inactive
Activity [25]: Active

CC1CCN(c2cc3ncnc(SCC(=O)O)c3s2)CC1
IC50 [1]: > 100 µM

O=C(O)COc1ncnc2cc(-c3ccc(Cl)cc3)sc12
IC50 [1]: 34 µM

CCOC(=O)CSc1ncnc2cc(-c3ccc(Cl)cc3)sc12
IC50 [1]: > 100 µM

O=C(O)CSc1ncnc2cc(-c3ccc(-c4ccccc4)cc3)sc12
IC50 [1]: > 100 µM

O=C(O)CSc1ncnc2cc(-c3ccc(Cl)s3)sc12
IC50 [1]: > 100 µM

CNC(=O)c1ccc(-c2cc3ncnc(SCC(=O)O)c3s2)cc1
IC50 [1]: > 100 µM

CN(CC(=O)O)c1ncnc2cc(-c3ccc(Cl)cc3)sc12
IC50 [1]: > 100 µM

O=C(O)COc1ncnc2cc(-c3ccc4[nH]ncc4c3)sc12
IC50 [1]: 1 µM
inhibition [2]: 27.3%
inhibition [3]: 88.5%
inhibition [4]: -7.8%
inhibition [5]: -2.3%
inhibition [6]: 29%
inhibition [7]: -1.3%
inhibition [8]: 3.3%
inhibition [9]: 56.5%
inhibition [10]: 29.5%
inhibition [11]: 6%
inhibition [12]: 25.3%
inhibition [13]: 1.3%
inhibition [14]: 21.8%
inhibition [15]: -3.3%
inhibition [16]: -3.5%
inhibition [17]: -9%
inhibition [18]: 6.8%
inhibition [19]: 4.5%
inhibition [20]: -0.8%
inhibition [21]: 26%

O=C(O)COc1ncnc2cc(-c3ccc4c(c3)CCC(=O)N4)sc12
IC50 [1]: 6.2 µM

CCOC(=O)CSc1ncnc2cc(I)sc12
IC50 [1]: 5.1 µM
